Source: patent US12692273B2, “p53 modulators and uses thereof” (The Regents of the University of California, priority 2019, dated 2026)
“And” between values parts separate entries of the source, which are not always exact repeats. Equal values may be shown once. “Also recorded” adds a separate entry of the source.

Legend:
p53 Y220C [1] = target: T1, p53 Y220C (Homo sapiens, UniProt P04637, C124S/C182S/C229S/C275S/C277S/M133L/N239Y/N268D/Y220C); assay: LC-MS analysis of p53 Y220C covalent labeling; assay type: binding; settings: for label and reactivate p53 Y220C: recombinant protein and patient derived cell-lines; for covalent labeling of p53 (Y220C): recombinant protein, Cys-220
T1 construct: Human p53 WT, R273C, and Y220C (residues 94-312,; 6xHIS (TEV-cleavable) (cleaved yes); made in house; host or cells: E. coli BL21(DE3)
Method: (§1) Recombinant protein expression. Human p53 WT, R273C, and Y220C (residues 94-312, (C124S, M133L, C182S, C229S, N239Y, N268D, C275S, C277S) were expressed as 6×HIS fusion proteins in E. coli BL21(DE3). Lysates were first purified by Ni Sepharose High Performance (GE Healthcare) affinity chromatography. Proteins were then eluted from the resin and subject to Heparin (GE Healthcare) affinity chromatography. The elution fraction was then subjected to TEV protease cleavage overnight in 50 mM HEPES, 200 mM NaCl, and 1 mM DTT (pH 7.0). The protein was then passed over Heparin affinity resin again to remove free 6×HIS and TEV protease, concentrated, and stored in a buffer containing 50 mM HEPES, 200 mM NaCl, and 20% glycerol (pH 7.0).
LC-MS analysis of p53 Y220C covalent labeling. Recombinant p53 Y220C (1 μM) in buffer containing 50 mM HEPES and 150 mM NaCl (pH 7.0) was treated with covalent compounds. The extent of covalent labeling was assessed by LC-MS (Waters Xevo G2-XS QTof, ACQUITY UPLC Protein BEH C4 Column, 300 Å, 1.7 μm, 2.1 mm×50 mm). Deconvolution of multiply charged ions was performed using Waters MassLynx software (version 4.1).

BxPC-3 (Y220C) cells = assay: Western blot of p21 and p53 in BxPC-3 (Y220C) cells; assay type: cell-based, human
Text: (§2) This is exciting preliminary evidence of successful re-animation of p53 (Y220C) with our lead compound KG2.
We have successfully synthesized several PEG linked versions of JQ1-KG1 bivalent molecules. We also treated BxPC-3 cells with free KG1 and JQ1 compounds as additional controls. We have performed western blots on p53, p21 and actin as a control (FIG. 4C).
(§3) Western blots and antibodies. Whole-cell extracts from MCF10A (Gift from Prof. Sourav Bandyopadhyay, UCSF), BxPC-3 (ATCC, CRL-1687), Calu-1 (ATCC, HTB-54) were prepared by lysing cells with lysis buffer containing 50 mM HEPES, 150 mM NaCl, 1 mM DTT, 10% glycerol, and 1% NP-40 (pH 7.0) in the presence of 1×cOmplete EDTA-free protease inhibitor cocktail (Roche). Whole-cell extracts were combined with 2×SDS-loading buffer for western blot analysis.
(§4) Western blots were performed with 10 μg protein and were resolved by SDS-PAGE on 4-12% BT gels (Invitrogen) at 150 V for 1 hr in MES buffer and transferred to nitrocellulose membranes, which were then incubated with primary antibodies at 4° C. overnight, followed by incubation with LI-COR IRDye anti-mouse and anti-rabbit secondary antibodies at room temperature for 1 hr. Bands were imaged on a LI-COR Odyssey scanner.
(§5) Antibodies for western blot detection were as follows: p53 (DO-1, SCBT), actin (8H10D10, CST), Rb phosS807/811 (85165, CST), and p21 (SX118, SCBT).

Calu-1 (null) cells = assay: Western blot of p21 in Calu-1 (p53 null) cells; assay type: cell-based, human; settings: Calu-1, p53 null setting
Method: as §2, §3, §4, §5

p53 Y220C [2] = target: T1, p53 Y220C; assay: Thermal stability assay (differential scanning fluorimetry) of p53 Y220C covalent adducts; assay type: binding; settings: for Tm: p53 Y220C-compound adduct, p53 Y220C alone 33.0, p53 WT 41.5; for Δ Tm (thermal shift, stabilization of Y220C): relative to p53 Y220C alone
Method: We synthesized a series of compounds, covalently labelled recombinant p53 (Y220C) with the compound, and performed differential scanning fluorimetry (DSF) assay to determine Tm relative to Y220C alone. We tested our lead compounds with the largest increase in Tm in homozygous p53 (Y220C) cell lines BxPC-3 and HCC1419 to determined how the covalent molecules alter p53 target gene expression. p53 WT MCF10A and p53 null Calu-1 cells were used as controls. The cell panel was treated with concentrations of compound ranging 100 nM-10 μM for 4 hr, 24 hr, and 48 hr. DMSO was used as a negative control, KG2 as a positive control, and Nutlin-3a as a positive control for p53 WT (FIG. 3D). We determined the differences in p53 target gene activation by performing qPCR on CDKN1A, MDM2, PUMA, BAX, NOXA, and used GAPDH as a negative control. We also performed a western blot on p53, p21, MDM2, and actin as a control to monitor the expected increase in protein levels of p21 and MDM2 protein. […] We immunoprecipitated p53 Y220C from the compound treated cell panel with Pab240 or IgG control, and western blot for p53 to determine the relative rescue of the native fold compared to DMSO treated cells.
as §1
Thermal Stability Assays. The thermal denaturation of p53 was monitored using fluorescence-based differential scanning fluorimetry assay. Purified p53 was incubated with excess covalent ligand overnight at 4° C. and purified by gel-filtration into 50 mM HEPES, 100 mM NaCl, and 15% glycerol (pH 7.0). 5 μM protein was prepared in assay buffer 50 mM HEPES and 100 mM NaCl (pH 7.0) with 2×SYPRO Orange (ThermoFisher). The plate was heated from 15° C. to 65° C. at a rate of 0.5° C./min. The fluorescence intensity was monitored at Ex/Em: 492/610 nm.

| SMILES | label and reactivate p53 Y220C (p53 Y220C [1]) | covalent labeling of p53 (Y220C) (p53 Y220C [1]) | p21 induction (Western blot) (BxPC-3 (Y220C) cells; BxPC-3 (p53 Y220C) cells) | Tm (p53 Y220C [2]; DSF) | Δ Tm (thermal shift, stabilization of Y220C) (p53 Y220C [2]) | also measured |
| --- | --- | --- | --- | --- | --- | --- |
| C#CCNC(=O)c1cn(C(=O)C=C)c2ccccc12 [KG2] | label and reactivate | labels p53 (Y220C) | activation of p21 expression in Y220C cells to the same level as nutlin in WT p53 cells | – | – | active concentration for p21 activation (BxPC-3 (Y220C) cells; BxPC-3 (p53 Y220C) cells): active at μM concentrations; p21 induction (Western blot) (Calu-1 (null) cells): does not show induction of p21 |
| C=CC(=O)n1c2ccccc2c2cc(C(=O)NCCOCCOCCOCCOCCNC(=O)C[C@@H]3N=C(c4ccc(Cl)cc4)c4c(sc(C)c4C)-n4c(C)nnc43)ccc21 [JQ1PEG4KG1] | – | – | strongly induce p21 | – | – | target p53 (Y220C) engagement (higher MW shift of p53 band) (BxPC-3 (Y220C) cells; BxPC-3 cells, Western blot): evidence of target p53 (Y220C) engagement; cell death (lower actin staining) (BxPC-3 (Y220C) cells; BxPC-3 cells, higher concentrations, 24 hours): extensive cell death |
| C=C(CC)C(N)=O [2-Ethylacrylamide] | – | – | – | – | – | stabilization of Y220C (in words) (p53 Y220C [2]; DSF, in the assay tested): did not stabilize |
| Cc1sc2c(c1C)C(c1ccc(Cl)cc1)=N[C@@H](CC(=O)OC(C)(C)C)c1nnc(C)n1-2 [JQ1, (S)-tert-butyl 2-(4-(4-chlorophenyl)-2,3,9-trimethyl-6H-thieno[3,2-f][1,2,4]triazolo[4,3-a][1,4]diazepin-6-yl)acetate, reference compound] | – | – | modest activation of p21 | – | – | – |
| C=CC(=O)n1cc(C=O)c2ccccc21 [KG37] | – | – | – | 34.5 °C | 1.5 °C | – |
| C=CC(=O)n1c2ccccc2c2cc(C=O)ccc21 [KG1] | label and reactivate | reacts with p53 (Y220C); also recorded: covalently labels | little or no effects | 35 °C and 34.5 °C | 1.5 °C | – |
